According to patent US5925671A, “Antitumor isocoumarins” (Pharma Mar, s.a., priority 1995, dated 1999):
Values after ≈ are worked out from the molar mass of the structure shown. Bridge positions count the residues as written; N and C are the ends. Square brackets hold non-standard residues; d marks the D form. Peptide text beside a SMILES is read from it. * marks the point of attachment. Ileψ(thiazoline)Cys = CC[C@H](C)[C@H](N)C1=N[C@H](C(=O)*)CS1; dOrn = NCCC[C@@H](N)C(=O)O

Assays:
Type in all cases: cell-based
[1] = system: MEL-28 (monolayer culture of a human melanoma); experiment: Antitumor activity: growth inhibition of MEL-28 cells, 3 days, Crystal Violet staining; settings: for IC50: Homo sapiens, SK-MEL-28, 72 h, MEL-28, three days, 37° C., approximate IC50; for antitumour activity against MEL-28 human melanoma: statement in words
From the text: (§1) An adapted form of the method described by Bergeron et al ("Antineoplastic an antiherpetic activity of spermidine catecholamide iron chelators" Biochem. Bioph. Res. Comm., 1984, 121(3), 848-854, and see also Schroeder et al, "Effects of Acyclic Pyrimidine Nucleoside Analogues" Med. Chem., 1981, 24 1078-1083) was used to determine the antitumor activity of the compounds of this invention. Three cultures of antitumour cell were employed. A-549 (monolayer culture of a human lung carcinoma, HT-29 (monolayer culture of a human colon carcinoma) and MEL-28 J (monolayer culture of a human melanoma).
(§2) A-549, HT-29 and MEL-28 were seeded into 16 mm wells at 2×20" cells per well in 1 ml aliquots of MEM 10FCS containing the identical concentration of drug. A separate set of cultures without drug was seeded a control growth to ensure that cells remained in exponential phase of growth. All determinations were carried out in duplicate. After three days of incubation at 37° C., 10% CO2 in 98% humid atmosphere, the wells were stained with 0.1% Crystal Violet. An approximate IC50 was determined by comparing growth in wells with drug to the growth in control wells.

[2] = system: A-549 (monolayer culture of a human lung carcinoma); experiment: Antitumor activity: growth inhibition of A-549 cells, 3 days, Crystal Violet staining; settings: for IC50: Homo sapiens, A549, 72 h, A-549, three days, 37° C., approximate IC50; for antitumour activity against A-549 human lung carcinoma: statement in words
From the text: as §1, §2

[3] = system: HT-29 (monolayer culture of a human colon carcinoma); experiment: Antitumor activity: growth inhibition of HT-29 cells, 3 days, Crystal Violet staining; settings: for IC50: Homo sapiens, 72 h, HT-29, three days, 37° C., approximate IC50; for antitumour activity against HT-29 human colon carcinoma: statement in words
From the text: as §1, §2

[4] = system: Bacillus sp. M-00-PHD-090 (CETC 4546); experiment: Antibiotic sensitivity of the producing strain (PASCO Data Management System MIC Gram Positive); settings: 28° C., 48 hours incubation
Experimental: 5. Antibiotic Sensitivity - PASCO™ Data Management System (Difco) MIC Gram Positive
All cultures were incubated at 28° C. and records of the results were made after 48 hours incubation time. The descriptions of the culture and test results are as follows: […]

Compound	Antibiotic sensitivity [4]	further results
CC(C)CC(NC(=O)C(O)C(O)C(N)CC(N)=O)C1Cc2cccc(O)c2C(=O)O1 (stereo not shown) [Amicoumacin A, amicoumacin A]	–	IC50 [1]: 0.15 µg/mL (≈ 0.354 µM); antitumour activity against MEL-28 human melanoma [1]: exhibit antitumour activity; IC50 [2]: 0.75 µg/mL (≈ 1.77 µM); antitumour activity against A-549 human lung carcinoma [2]: exhibit antitumour activity; IC50 [3]: 1.5 µg/mL (≈ 3.54 µM); antitumour activity against HT-29 human colon carcinoma [3]: exhibit antitumour activity
CC(C)CC(N)C(O)C(O)C(=O)NC(CC(C)C)C1Cc2cccc(O)c2C(=O)O1 (stereo not shown) [PM-94128]	–	IC50 [1]: 0.02 µg/mL (≈ 0.0473 µM); antitumour activity against MEL-28 human melanoma [1]: exhibit antitumour activity; IC50 [2]: 0.02 µg/mL (≈ 0.0473 µM); antitumour activity against A-549 human lung carcinoma [2]: exhibit antitumour activity; IC50 [3]: 0.02 µg/mL (≈ 0.0473 µM); antitumour activity against HT-29 human colon carcinoma [3]: exhibit antitumour activity
NCC[C@H](O)C(=O)N[C@@H]1C[C@H](N)[C@@H](O[C@H]2O[C@H](CN)[C@@H](O)[C@H](O)[C@H]2O)[C@H](O)[C@H]1O[C@H]1O[C@H](CO)[C@@H](O)[C@H](N)[C@H]1O [amikacin]	Sensitive	–
CC1(C)S[C@@H]2[C@H](NC(=O)[C@H](N)c3ccccc3)C(=O)N2[C@H]1C(=O)O [ampicillin]	Sensitive	–
CC[C@H](C)[C@H](N)C1=N[C@H](C(=O)N[C@@H](CC(C)C)C(=O)N[C@H](CCC(=O)O)C(=O)N[C@H](C(=O)N[C@H]2CCCCNC(=O)[C@H](CC(N)=O)NC(=O)[C@@H](CC(=O)O)NC(=O)[C@H](Cc3cnc[nH]3)NC(=O)[C@@H](Cc3ccccc3)NC(=O)[C@H]([C@@H](C)CC)NC(=O)[C@@H](CCCN)NC2=O)[C@@H](C)CC)CS1 [bacitracin] ({Ileψ(thiazoline)Cys}-L[dE]IK[dOrn]I[dF]H[dD]N; lactam 4-C)	resistant	–
N[C@@H](C(=O)N[C@@H]1C(=O)N2C(C(=O)O)=C(Cl)CS[C@H]12)c1ccccc1 [ceflactor]	Sensitive	–
CO[C@@]1(NC(=O)Cc2cccs2)C(=O)N2C(C(=O)O)=C(COC(N)=O)CS[C@@H]21 [cefoxitin]	Sensitive	–
CO/N=C(\C(=O)N[C@@H]1C(=O)N2C(C(=O)O)=C(COC(N)=O)CS[C@H]12)c1ccco1 [cefuroxime]	Sensitive	–
CC[C@H]1OC(=O)[C@H](C)[C@@H](O[C@H]2C[C@@](C)(OC)[C@@H](O)[C@H](C)O2)[C@H](C)[C@@H](O[C@@H]2O[C@H](C)C[C@H](N(C)C)[C@H]2O)[C@](C)(O)C[C@@H](C)C(=O)[C@H](C)[C@@H](O)[C@]1(C)O [erythromycin]	Sensitive	–
C[C@@H]1O[C@@H]1P(=O)(O)O [fosfomicin]	Sensitive	–
CCn1cc(C(=O)O)c(=O)c2ccc(C)nc21 [nalidixic acid]	Sensitive	–
CCn1cc(C(=O)O)c(=O)c2cc(F)c(N3CCNCC3)cc21 [norfloxacin]	Sensitive	–
CO[C@@H]1[C@@H](OC(N)=O)[C@@H](O)[C@H](Oc2ccc3c(O)c(NC(=O)c4ccc(O)c(CC=C(C)C)c4)c(=O)oc3c2C)OC1(C)C [novobiocin]	Sensitive	–
Cc1onc(-c2ccccc2)c1C(=O)N[C@@H]1C(=O)N2[C@@H]1SC(C)(C)[C@@H]2C(=O)O [oxacillin]	Sensitive	–
CC1(C)S[C@@H]2[C@H](NC(=O)Cc3ccccc3)C(=O)N2[C@H]1C(=O)O [penicillin]	Sensitive	–
CO[C@H]1/C=C/O[C@@]2(C)Oc3c(C)c(O)c4c(O)c(c(/C=N/N5CCN(C)CC5)c(O)c4c3C2=O)NC(=O)/C(C)=C\C=C\[C@H](C)[C@H](O)[C@@H](C)[C@@H](O)[C@@H](C)[C@H](OC(C)=O)[C@@H]1C [rifampicin]	Sensitive	–
[H]/N=C(/N)N[C@H]1[C@H](O)[C@@H](O)[C@H](O[C@@H]2O[C@@H](C)[C@](O)(C=O)[C@H]2O[C@@H]2O[C@@H](CO)[C@H](O)[C@@H](O)[C@@H]2NC)[C@@H](N/C(N)=N\[H])[C@@H]1O [streptomycin]	Sensitive	–
CN(C)C1C(=O)C(C(N)=O)=C(O)C2(O)C(=O)C3=C(O)c4c(O)cccc4C(C)(O)C3CC12 (stereo not shown) [tretracycline]	Sensitive	–
CN[C@H](CC(C)C)C(=O)N[C@H]1C(=O)N[C@@H](CC(N)=O)C(=O)N[C@H]2C(=O)N[C@H]3C(=O)N[C@H](C(=O)N[C@H](C(=O)O)c4cc(O)cc(O)c4-c4cc3ccc4O)[C@H](O)c3ccc(c(Cl)c3)Oc3cc2cc(c3O[C@@H]2O[C@H](CO)[C@@H](O)[C@H](O)[C@H]2O[C@H]2C[C@](C)(N)[C@H](O)[C@H](C)O2)Oc2ccc(cc2Cl)[C@H]1O [vancomycin]	resistant	–
gentamicin	Sensitive	–
teicoplanin	resistant	–
